# Data from EP4729537A1, “B-LACTAMASE-INHIBITING ANTIBODY AND USE THEREOF IN THE TREATMENT AND/OR PREVENTION OF INFECTIONS CAUSED BY B-LACTAMASE-PRODUCING BACTERIA” (priority 2023, dated 2024).
# Like-named read-outs stand apart in the source and are kept apart here.
# Target: KPC-2 (UNIPROT Q9F663) from Klebsiella pneumoniae, SEQ ID NO. 32 (Klebsiella pneumoniae, UniProt Q9F663)
# Details: E. coli cells
# Procedure: An in vivo assay was conducted to test the inhibitory capacity of four β-lactamases from three resistant microorganisms: BlaMab from Mycobacterium abscessus, KPC-2 (UNIPROT Q9F663) and OXA-48 (UNIPROT Q6XEC0) from Klebsiella pneumoniae, and VIM-2 (UNIPROT B8QIQ9) from Pseudomonas aeruginosa. The assay utilized BL21(DE3) strain cells of Escherichia coli transformed with the expression vector pET26b(+) along with the gene sequence of each β-lactamase. Cells successfully transformed with the vector and insert were selected using a Kanamycin resistance gene (KanR) present in the vector. The presence and orientation of the insert were confirmed using PCR and sequencing. Additionally, the pET26b(+) vector has an IPTG-inducible promoter to activate the translation of the corresponding β-lactamase. The plasmid also includes a pelB export signal directing the β-lactamase to the periplasmic space of the bacteria for the inhibition assay with Ndis (nanobodies, single-domain antibodies).
# To obtain Table 4 with the enzymatic constants (Km, Vmax, Kmi, and Ki) of BlaMab-2, KPC-2, VIM-2, and OXA-48 with B2 and B5, a quantitative assay was performed using a cephalosporin analog: nitrocefin. This compound changes color from yellow to red when hydrolyzed by β-lactamase, which can be quantified by measuring absorbance at 490nm. This method was used to study the membrane permeability of the antibodies in the bacteria as well as the inhibitory effect of B2 and B5 on the activity of BlaMab, KPC-2, OXA48, and VIM-2.
# Sequence of KPC-2 (UNIPROT Q9F663) from Klebsiella pneumoniae, SEQ ID NO. 32 (Q9F663 25-293 limits assumed): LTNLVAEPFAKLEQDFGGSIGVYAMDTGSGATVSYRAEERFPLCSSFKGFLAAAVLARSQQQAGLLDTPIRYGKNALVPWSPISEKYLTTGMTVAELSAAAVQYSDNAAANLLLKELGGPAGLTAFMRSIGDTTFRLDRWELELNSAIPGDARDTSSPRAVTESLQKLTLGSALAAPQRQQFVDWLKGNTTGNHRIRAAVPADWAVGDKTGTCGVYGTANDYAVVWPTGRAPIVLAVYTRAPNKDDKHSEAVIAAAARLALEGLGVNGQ
smiles,measurement,setting,value
O=C(Cc1cccs1)N[C@@H]1C(=O)N2C(C(=O)O)=C(/C=C/c3ccc([N+](=O)[O-])cc3[N+](=O)[O-])CS[C@H]12 [nitrocefin],Km,"read-out: Km(µM) B2, with antibody B2",121 µM
same,Km,"read-out: Km(µM) B5, with antibody B5",2.19 µM
same,Km,"read-out: Km(µM) Control without antibody, control without antibody (controls of the B2 and B5 runs)",1.36 µM
